According to patent US9617276B2, “Compounds and methods for treating AIDS and HIV infections” (priority 2009, dated 2017):

Experiments:
cytotoxicity CC50 = format: cell-based, Human; details: human
HIV-1NL4-3 [1] = assay: in vitro selection of PI-resistant HIV-1 variants in MT-4 cells; format: cell-based; details: HIV-1NL4-3 in MT-4 cells, increasing drug concentrations
Excerpt: The culture supernatants were harvested on day 7 and used to infect fresh MT-4 cells for the next round of culture in the presence of increasing concentrations of each drug.

HIV-1 protease = target: T1, HIV-1 protease (Human immunodeficiency virus type 1 group M subtype B, UniProt P04585); assay: HIV protease enzyme inhibition, fluorometric assay of Toth and Marshall; format: biochemical; details: Ki, Table 2
T1 construct: A simple, continuous fluorometric assay for HIV protease
Description: (§1) The inhibitory potencies of acyclic and cyclic inhibitors were measured by the assay protocol of Toth and Marshall (Toth, M. V.; Marshall, G. R. A simple, continuous fluorometric assay for HIV protease. Int. J. Pep. Protien Res. 1990, 36, 544-55).

HIV-1396-1μM = assay: microbe, parasite or virus in culture; format: cell-based, HIV-1
Description: (§2) Briefly, MT-2 cells (2×10^4/ml) were exposed to 100 50% tissue culture infectious doses (TCID50S) of HIV-1LAI, in the presence or absence of various concentrations of drugs in 96-well microculture plates and were incubated at 37° C. for 7 days. After 100 μl of the medium was removed from each well, 3-(4,5-dimetylthiazol-2-yl)-2,5-diphenyltetrazolium bromide (MTT) solution (10 μl, 7.5 mg/ml in phosphate-buffered saline) was added to each well in the plate, followed by incubation at 37° C. for 3 h. […] All assays were performed in duplicate or triplicate. […] To determine the drug susceptibility of certain laboratory HIV-1 strains, MT-4 cells were used as target cells. In brief, MT-4 cells (10^5/ml) were exposed to 100 TCID50S of drug-resistant HIV-1 strains in the presence or absence of various concentrations of drugs and on day 7 of culture, the supernatant was harvested and the amounts of p24 Gag protein were determined. […] All assays were performed in duplicate or triplicate.
(§3) Numbers in parentheses represent n-fold changes in EC50s for each isolate compared to the EC50s for wild-type HIV-1NL4-3.

HIV-1286-1μM = assay: microbe, parasite or virus in culture; format: cell-based, HIV-1
Description: as §2, §3

HIV-1246-1μM = assay: microbe, parasite or virus in culture; format: cell-based, HIV-1
Description: as §2, §3

HIV-1216-P50 = assay: microbe, parasite or virus in culture; format: cell-based, HIV-1
Description: as §2, §3

HIV-1NL4-3 [2] = assay: p24 Gag inhibition in MT-4 cells, HIV-1NL4-3; format: cell-based; details: Human immunodeficiency virus 1, MT4, read-out: EC50 (μM), HIV-1NL4-3, Table 9, mean ± 1 SD
Description: (§4) All assays were performed in duplicate or triplicate. […] All assays were performed in duplicate or triplicate.

HIV-1LAI = assay: drug susceptibility, MT-2 cells, MTT assay, HIV-1LAI; format: cell-based
Description: as §4
Each selectivity index denotes a ratio of CC50 to EC50 against HIV-1LAI N.D., not done.

HIV-1 = assay: antiviral assay (IC50); format: cell-based; details: Human immunodeficiency virus 1, Table 2; read-out: IC50
Description: as §1

[3] = compared to wild-type HIV-1NL4-3

COc1ccc2c(c1)OCC=CCCCCN(CC(O)C(Cc1ccccc1)NC(=O)OC1COC3OCCC13)S2(=O)=O (stereo not drawn) [Compound 14d]
CC50 (cytotoxicity CC50): 44.9 ± 4.1 µM | passage by which HIV-1 variants replicating in the presence of 1 μM drug emerged (HIV-1NL4-3 [1]): 33 passages | Ki (HIV-1 protease): < 0.001 µM | EC50 (HIV-1396-1μM; Human immunodeficiency virus 1, MT4, read-out: EC50 (μM), HIV-1396-1 μM): 0.52 ± 0.07 µM | n-fold change in EC50, HIV-1396-1 μM (HIV-1396-1μM; [3]): (31) | EC50 (HIV-1286-1μM; Human immunodeficiency virus 1, MT4, read-out: EC50 (μM), HIV-1286-1 μM): > 1 µM | n-fold change in EC50, HIV-1286-1 μM (HIV-1286-1μM; [3]): > 59 | EC50 (HIV-1246-1μM; Human immunodeficiency virus 1, MT4, read-out: EC50 (μM), HIV-1246-1 μM): 0.37 ± 0.013 µM | n-fold change in EC50, HIV-1246-1 μM (HIV-1246-1μM; [3]): (22) | EC50 (HIV-1216-P50; Human immunodeficiency virus 1, MT4, read-out: EC50 (μM), HIV-1216-p50): 0.24 ± 0.06 µM | n-fold change in EC50, HIV-1216-p50 (HIV-1216-P50; [3]): (14) | EC50 (HIV-1NL4-3 [2]): 0.017 ± 0.005 µM | EC50 (HIV-1LAI; Human immunodeficiency virus 1, MT2, read-out: EC50 (μM) for HIV-1LAI): 0.014 ± 0.001 µM | Selectivity Index (HIV-1LAI; ratio of CC50 to EC50 against HIV-1LAI): 3,200 | IC50 (HIV-1): < 0.1 µM
